Measured values reported in patent US20120178667A1, “METHODS FOR TREATING SEPTIC SHOCK” (THE GOVERNMENT OF THE UNITED STATES OF AMERICA, dba THE …, priority 2006, published 2012).

Legend:
[1] = system: TLR-dependent signaling; conditions: in vitro; cited from earlier work
[2] = system: HC-NPC co-cultures; assay: Inflammatory mediators in LPS-stimulated HC-NPC co-cultures; type: cell-based; conditions: stimulated with LPS
[3] = system: BALB/c mice; assay: LPS-induced serum TNF-α and soluble ICAM-1 in mice (ELISA); type: in vivo; conditions: serum 2 hours after LPS
Protocol: FIG. 2 is a set of bar graphs showing P13 inhibition of serum inflammatory mediators. BALB/c mice were injected intraperitoneally (i.p.) with 5 mg/kg LPS and 30 minutes later injected i.p. with P13 (15, 50, or 75 μg) or PBS. Two hours after LPS injection, serum was collected and TNF-α and soluble ICAM-1 were quantified by ELISA. Values represent means +/−S.D.
Serum cytokines and soluble ICAM-1. BALB/c female mice were injected intraperitoneally (i.p.) with 5 mg/kg of LPS and peptide P13 (15, 50, or 75 μg) or PBS was injected i.p. 30 minutes later. Two hours after injection of LPS, serum was collected and TNF-α and soluble ICAM-1 quantified by ELISA (R&D Systems).
To determine the effect of peptide treatment on the induction of serum inflammatory mediators, mice were injected with a sub-lethal high dose of LPS and 30 minutes later with P13 or phosphate buffered saline (PBS). Serum was collected 2 hours after treatment with LPS. TNF-α and soluble ICAM-1 were quantified by ELISA. […] The effect of delayed peptide P13 treatment at different doses of peptide on LPS-induced production of soluble ICAM-1 was examined.

[4] = system: animals treated with low dose LPS plus D-GaLN; assay: Survival after low dose LPS plus D-GaLN; type: in vivo
[5] = system: BALB/c mice; assay: LPS-induced sepsis model, lethality after high dose LPS; type: in vivo; conditions: LPS 70 mg/kg i.p.; peptide 75 μg s.c. at 2 and 6 hours after LPS
Protocol: FIG. 3 is a line graph illustrating decreased mortality in P13-treated mice after high dose LPS. BALB/c mice were injected i.p. with LPS (70 mg/kg) and 2 and 6 hrs later treated s.c. with P13 or control peptide (75 μg/mouse/injection). The mice (10 animals/group) were monitored every 3-4 hours for lethality, and the experiment was terminated after 96 hrs.
LPS-induced sepsis. Female BALB/c mice were injected i.p. with 70 mg/kg of LPS. At 2 and 6 hours after injection of LPS, mice were treated with scrambled control peptide or peptide P13. The peptides were administered subcutaneously at 75 μg/animal/injection time, with 10 mice/treatment group. The mice were monitored every 3-4 hours and the experiment was terminated after 96 hours.
As P13 inhibited production of inflammatory mediators in vivo, an LPS-induced murine sepsis model was used to determine the effect of peptide P13 on survival. Mice were injected with lethal dose of LPS (70 mg/kg) and treated 2 and 6 hours later with scrambled control peptide (75 μg) or a matching concentration of peptide P13. […] The experiment was terminated at 96 hours and P13 treated mice remained at 40% survival (FIG. 3). These studies confirm the in vivo activity of peptide P13 to reduce lethality in an LPS sepsis model even when peptide treatment is initiated after administration of LPS.

[6] = system: murine bEND.3 endothelial cell line; assay: LPS-induced MIP-2 and IL-6 production by endothelial cells (ELISA of supernatants); type: cell-based; conditions: 15 μg/well or 20 μg/well peptide, 15 min pre-treatment, LPS 12.5 ng/well, 4-hour supernatants
Protocol: FIG. 1 is a set of bar graphs showing P13 inhibition of macrophage inflammatory protein (MIP)-2 and interleukin (IL)-6. Murine endothelial cell line bEND.3 (2×10^5 cells/48-well plate) were pre-treated for 15 minutes with P13 or scrambled control peptide at matching peptide concentrations (15 or 20 μg/well) and then with LPS (12.5 ng/well). MIP-2 and IL-6 were quantified by ELISA from 4-hour cell-free supernatants. Cytokine values represent means +/−S.D. from quadruplicate wells/experimental condition.
Quantification of cytokines from cell supernatants. IL-6 and MIP-2 ELISA kits were used to assay cytokine levels in cell culture supernatants according to the protocols provided by the manufacturer (R&D Systems, Minneapolis, Minn.).
Because endothelial cells can be activated and even damaged in response to LPS exposure, the effect of treatment with peptide P13 on LPS-induced cytokine responses from the murine bEND.3 endothelial cell line was examined. Treatment of the bEND cells with LPS induced secretion of MIP-2 and IL-6.

Substance	inhibition of TLR-dependent signaling [1]	production of inflammatory mediators [2]	inhibition of serum TNF-α ([3]; 50 μg i.p. 30 min after 5 mg/kg LPS i.p.)	inhibition of serum TNF-α ([3]; 75 μg i.p. 30 min after 5 mg/kg LPS i.p.)	survival [4]	lethality at 36 hours [5] [%]	lethality at 74 hours [5] [%]	survival at 96 hours [5] [%]	inhibition of IL-6 production [6]	inhibition of MIP-2 production [6]
DIVKLTVYDCI-RRRRRRRRR (listed as Vaccinia virus) [P13, A52R amino acids 125 to 135 linked to nine arginines]	capable of in vitro inhibition	reduced the production of inflammatory mediators	did not reduce	significant inhibition	enhance survival	60	60	40	> 90%	> 90%
ITCVDVDLIYK-RRRRRRRRR (ITCVDVDLIYKRRRRRRRRR; listed as Vaccinia virus) [scrambled control peptide, scrambled control of P13 with nine arginines, reference compound]						90	100		only modest inhibition	only modest inhibition
